Results published in PMC4756849, “A novel high-throughput activity assay for the Trypanosoma brucei editosome enzyme REL1 and other RNA ligases” (Nucleic Acids Research, 2015).
pIC50: −log10 of the molar value. Where a name gives a salt, the structure may show the parent alone. Read-outs that look alike come from different tables or passages of the source.

Columns and labels:
Trypanosoma brucei REL1 [1] = target: T1, Trypanosoma brucei REL1 (Trypanosoma brucei brucei, UniProt P86926); assay: biochemical; assay type: biochemical
T1 construct: made in house; host or cells: Escherichia coli BL21 (DE3), polycistronic pET-21d construct
T1 sequence (P86926 51-469): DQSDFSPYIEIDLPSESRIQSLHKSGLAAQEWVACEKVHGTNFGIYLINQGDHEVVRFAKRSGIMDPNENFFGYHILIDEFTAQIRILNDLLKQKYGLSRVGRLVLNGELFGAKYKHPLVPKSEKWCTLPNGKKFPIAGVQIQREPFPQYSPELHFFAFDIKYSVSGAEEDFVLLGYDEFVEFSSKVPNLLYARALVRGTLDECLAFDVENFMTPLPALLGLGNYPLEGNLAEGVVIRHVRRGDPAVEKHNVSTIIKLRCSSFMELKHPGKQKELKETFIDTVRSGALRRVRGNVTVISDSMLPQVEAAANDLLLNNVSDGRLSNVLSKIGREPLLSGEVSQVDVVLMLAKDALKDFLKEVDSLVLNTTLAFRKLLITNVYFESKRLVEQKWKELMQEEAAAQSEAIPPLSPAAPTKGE
Protocol: Substrate RNAs were annealed in the presence of 25 mM KCl, 12.5 mM Tris–HCl pH 8.0, 5 mM Mg(OAc)2 and 0.25 mM DTT at a concentration of 1 μM in 10-ml batches by incubation at 70°C for 10 min, followed by slow cooling to room temperature. Annealed substrate was stored at −80°C. For 2400 assays, 2.4 μl 100 mM ATP were added to 12 ml pre-annealed substrate and 5 μl of the mixture dispensed into each well of a 384-well assay plate (Greiner 788075). A total of 50 nl of LOPAC (Sigma-Aldrich; 2 mM in DMSO) or Maybridge Hitfinder (Thermo Fisher Scientific; 2 mM in DMSO) compounds were added per well using a Biomek FX instrument. Recombinant REL1 was diluted in 10% (v/v) glycerol, 300 mM NaCl, 2 mM DTT and 20 mM Tris–HCl pH 6.0 to a final concentration of 300 ng/μl. One hundred twenty microliter REL1 solution were added to 11.88 ml ligation buffer (5 mM KCl; 12.5 mM Tris–HCl pH 6.0; 1 mM Mg(OAc)2; 0.25 mM DTT, 0.2% (w/v) Triton X-100; 0.003% (w/v) Brij 35) and 5 μl of the REL1/ligation buffer mix were added to each well to start the reaction ([…] REL1 per well). A total of 50 μM NSC-42067 served as positive control for inhibition ([34]). As additional controls, each plate included reactions without inhibitor and reactions without REL1. After 30 min incubation at room temperature the reaction was stopped by adding 12.5 μl STOP solution (9 M urea; 20 mM EDTA). After a minimum incubation period of 15 min plates were read using a ratiometric wavelength read (excitation at 485 nm, detection at 665 and 535 nm). HTS was carried out at The Scripps Research Institute, San Diego, CA, USA.
To validate the suitability of the FRET-based REL1 activity assay for HTS, the assay conditions were adapted to 384-well format to facilitate a pilot screen. An ATP concentration of 10 μM was chosen as a compromise between sensitivity to inhibition and robust S:B ratio.
Figure 5. […] Data were plotted as% inhibition compared to controls without inhibitor and fitted to a sigmoidal curve. […] All experiments were carried out under optimized conditions, and means and standard deviations for three replicates are shown.

Trypanosoma brucei REL1 [2] = target: T1, Trypanosoma brucei REL1; assay: Non-denaturing PAGE of RNA ligation reaction by REL1; assay type: biochemical; conditions: increasing concentrations of compound, optimized conditions, Figure S4
Protocol: After ligation reaction, 20% (w/v) polyacrylamide gels were used to separate the RNA molecules by non-denaturing PAGE in Tris-borate-EDTA (TBE) buffer. For denaturing PAGE, gels contained 7 M urea. Gels were analyzed using a Typhoon FLA 7000 (GE Healthcare).
Figure S4. Non-denaturing PAGE showing inhibition of RNA ligation reaction by compound NSC42067. Lanes 1, 2 and 3 were loaded with the 16-nt 6-FAM 5’-RNA substrate, the 13-nt Cy5 3’- RNA substrate and a 29-nt dual 6-FAM/Cy5-labelled DNA oligo, respectively. Lane 4 was left empty.
Lanes 5 to 8 show products from standard reaction conditions and controls. Lanes 9 to 11 show the effects of increasing concentrations of NSC42067 in the assay. Ligation reactions were carried out under optimized conditions. The gel analysis confirmed the following:
Lanes 1 - 3: See Supplementary Figure S1.
Lanes 5 to 7: As before (compare Supplementary Figure S1), incubation of 5’- and 3’-RNAs with […]
The intensity of both bands increased with longer incubation time (compare lane 6 = 5 min with lane 7 = 30 min) and was dependent on the presence of REL1 (lane 5).
Figure S5. Structures of the hit compounds selected for validation.
Figure S6. Scatter plot showing the results of the second pilot screen. Compounds of the Maybridge library were incubated at 10 µM concentration in 384-well plates with REL1 (7.8 nM) in the presence […]
Stop buffer was added after 30 min. […]

T. brucei gambiense = tested on: T. brucei gambiense; parameters: method as in PMID 14982785; conditions: in vitro; cited from earlier work
human hemopoietic cells = conditions: cited from earlier work
[3] = single-shot HTS, 10 μM final compound concentration, 10 μM ATP, as suggested by HTS
[4] = dose-response curves, HTS/optimized assay conditions, 10 μM ATP, influenced by unknown percentage of active protein
[5] = dose-response curves, HTS/optimized assay conditions, 10 μM ATP, influenced by unknown percentage of active protein, read-out: IC50

Row | Structure (SMILES) | Inhibition at 10 μM (Trypanosoma brucei REL1 [1]; read-out: Inhibition at 10 μM) | Inhibition at 10 μM (Trypanosoma brucei REL1 [1]; [3]) | other results
1 | CSc1nc(N)c2ncn([C@@H]3O[C@H](COP(=O)(O)OP(=O)(O)O)[C@@H](O)[C@H]3O)c2n1 [2-(Methylthio)adenosine 5′-diphosphate trisodium salt hydrate] | 22% |  | 
2 | Nc1nc(Cl)nc2c1ncn2[C@@H]1O[C@H](COP(=O)(O)OP(=O)(O)OP(=O)(O)O)[C@@H](O)[C@H]1O [2-Chloroadenosine triphosphate tetrasodium hydrate] | 18% |  | 
3 | Cn1c(=O)c2[nH]c(-c3ccc(S(=O)(=O)O)cc3)nc2n(C)c1=O [8-(p-Sulfophenyl)theophylline hydrate] | 23% |  | 
4 | CC(=O)OC[C@H]1O[C@@H]([S-])[C@H](OC(C)=O)[C@@H](OC(C)=O)[C@@H]1OC(C)=O.CCP(CC)CC.[Au+] [Auranofin] |  | 24% | 
5 | OC[C@H]1O[C@H]([S-])[C@H](O)[C@@H](O)[C@@H]1O.[Au+] [Aurothioglucose hydrate] |  | 93% | IC50 (μM) (Trypanosoma brucei REL1 [1]; [4]): low μM range; pIC50 (Trypanosoma brucei REL1 [1]; [5]): 4.92
6 | NC(=O)c1cc[n+](CC2=C(C(=O)[O-])N3C(=O)[C@@H](NC(=O)[C@@H](c4ccccc4)S(=O)(=O)[O-])[C@H]3SC2)cc1.[Na+] [Cefsulodin sodium salt hydrate] |  | 46% | 
7 | CC(=O)OCC1=C(C(=O)[O-])N2C(=O)[C@@H](NC(=O)CCC[C@@H](N)C(=O)[O-])[C@H]2SC1.[Zn+2] [Cephalosporin C zinc salt] |  | 21% | 
8 | CC(C)NC(C)Cc1ccc(I)cc1 (stereo not shown) [Iofetamine hydrochloride] | 70% |  | 
9 | NC(N)=NOCC[C@H](N)C(=O)O [L-Canavanine] | 46% |  | 
10 | O=C(O)/C(=C/c1c(C(=O)O)[nH]c2cc(Cl)cc(Cl)c12)c1ccccc1 [MDL 105,519] |  | 18% | 
11 | O=[N+]([O-])/C=C/c1ccc2c(c1)OCO2 [MNS] |  | 22% | 
12 | CN(N=O)c1ccc(O)c(O)c1 [Methyl-3,4-dephostatin] |  | 97% | pIC50 (Trypanosoma brucei REL1 [1]; [5]): < 4.30; Inhibition in dose-response curve (Trypanosoma brucei REL1 [1]; up to 50 μM concentration): no significant inhibition
13 | O.O=c1c(O)c(-c2ccc(O)cc2O)oc2cc(O)cc(O)c12 [Morin hydrate] |  | 17% | 
14 | O=c1c(O)c(-c2cc(O)c(O)c(O)c2)oc2cc(O)cc(O)c12 [Myricetin] | 100% |  | pIC50 (Trypanosoma brucei REL1 [1]): 5.75; IC50 (μM) (Trypanosoma brucei REL1 [1]; [4]): low μM range
15 | O=C(Nc1cccc(C(=O)Nc2ccc(S(=O)(=O)[O-])c3cc(S(=O)(=O)[O-])cc(S(=O)(=O)[O-])c23)c1)Nc1cccc(C(=O)Nc2ccc(S(=O)(=O)[O-])c3cc(S(=O)(=O)[O-])cc(S(=O)(=O)[O-])c23)c1.[Na+].[Na+].[Na+].[Na+].[Na+].[Na+] [NF 023 hydrate] |  | 79% | IC50 (μM) (Trypanosoma brucei REL1 [1]; [4]): low μM range; pIC50 (Trypanosoma brucei REL1 [1]; [5]): 5.71
16 | O=C(O)c1cc(O)c(O)c(OC(=O)c2cc(O)c(O)c(O)c2CNc2ccc3cc(S(=O)(=O)O)cc(S(=O)(=O)O)c3c2)c1 [NSC42067] |  |  | Effect on formation of the ligation product (gel) (Trypanosoma brucei REL1 [2]): inhibit formation of the ligation product; pIC50 (Trypanosoma brucei REL1 [1]; [5]): 5.85
17 | C#CCN[C@H](C)Cc1ccccc1.Cl [R-(–)-Desmethyldeprenyl hydrochloride] |  | 38% | 
18 | Cc1ccc(C(=O)Nc2ccc(S(=O)(=O)O)c3cc(S(=O)(=O)O)cc(S(=O)(=O)O)c23)cc1NC(=O)c1cccc(NC(=O)Nc2cccc(C(=O)Nc3cc(C(=O)Nc4ccc(S(=O)(=O)O)c5cc(S(=O)(=O)O)cc(S(=O)(=O)O)c45)ccc3C)c2)c1 [Suramin sodium salt] | 66% |  | pIC50 (Trypanosoma brucei REL1 [1]): 5.53; IC50 (μM) (Trypanosoma brucei REL1 [1]; [4]): low μM range
19 | N#C/C(=C\c1ccc(O)c(O)c1)C(=O)NCCCNC(=O)/C(C#N)=C/c1ccc(O)c(O)c1 [Tyrphostin AG 537] |  | 93% | IC50 (μM) (Trypanosoma brucei REL1 [1]; [4]): low μM range; pIC50 (Trypanosoma brucei REL1 [1]; [5]): 6.60
20 | CC(C)N(CCC(=O)c1ccc2ccccc2c1)Cc1ccccc1.Cl [ZM 39923 hydrochloride] |  | 26% | 
21 | N.N.[Cl][Pt][Cl] [cis-Diammineplatinum(II) dichloride] |  | 14% | 
22 | O=c1c(O)c(-c2ccc(O)c(O)c2)oc2cc(O)cc(O)c12 [quercertin] |  |  | LD50 (T. brucei gambiense): 10 µM; Effect on human hemopoietic cells (human hemopoietic cells): without affecting human hemopoietic cells
23 | CC1(C)CCC2=C(O1)c1ccccc1C(=O)C2=O [β-Lapachone] | 48% |  | 
